Patent US10105411B2, “Compositions and methods for modulating AT2R activity” (Novopyxis, Inc., priority 2014, dated 2018)
“Also recorded” adds a separate entry of the source. Where no end group is shown, it is not given here.

Key:
PC-12 cells = assay: Survival/viability of serum-starved PC-12 cells (MTS cell proliferation assay); format: cell-based
Protocol: (§1) Serum-starvation reduced survival of SH-SY5Y cells and PC-12 cells. […] Treatment of this cell line with 300 nM of NP-6AK agonist led to increased cell viability by over 30% relative to treatment with native ligand of AT2R Ang II (300 nM). […] AT2R activation by NP-6AK agonist promotes cell survival whereas AT2R activation by other ligands are harmful to it.

MCL-1 [1] = assay: MCL-1 expression in HL-1 cardiomyocytes; format: cell-based, mouse; conditions: for effect of AT2R antagonist on NP-6AK-mediated MCL-1 upregulation: antagonist with NP-6AK agonist; for MCL-1 expression (in words): female mouse HL-1 cardiomyocytes, FIG. 1A
From the text: (§2) Cells treated with the NP-6AK agonist generated higher MCL-1 upregulation relative to those treated with a partial agonist such as CGP42112A.

MCL-1 [2] = assay: MCL-1 expression in human vascular smooth muscle cells (CAVSMCs); format: cell-based; conditions: for effect of AT2R antagonist on NP-6AK-mediated MCL-1 upregulation: antagonist with NP-6AK agonist; for MCL-1 expression (in words): human CAVSMCs, FIG. 1B
From the text: as §2

[3] = tested on: mouse HL-1 cardiomyocytes; assay: Cell index (CI) cell survival, Xcelligence Real-Time Cell Analyzer, HL-1 cells; format: cell-based; conditions: for increase in cell index (CI): serum starved HL-1 cells
Protocol: (§3) Thus, an NP-6AK agonist comprising the sequence Lys-Pro-Leu-Lys-Pro-Trp (SEQ ID NO. 2) promoted cell survival across mouse HL-1 cardiomyocytes and human smooth vascular muscle cells by acting through AT2R activation. Cell survival was assessed by measurement of cell index (CI) using a Xcelligence™ Real-Time Cell Analyzer (Westburg B V, Leusden, N L) to quantitatively determine the effect of different treatments on cell survival, adhesion, and proliferation. […] CGP42112A and the NP-6AK agonist (300 nM) increased CI of serum starved HL-1 cells in the order CGP42112A (≥14%), NP-6AK (≥25%). Increase in CI is a direct effect of AT2R activation. This was verified by addition of an AT2R antagonist, PD123319 (Sigma-Aldrich, Co. LLC, St. Louis, Mo.). In the presence of this antagonist, the cell survival otherwise observed using the NP-6AK agonist was not present.

SH-SY5Y cells [4] = assay: Neurite elongation in SH-SY5Y cells; format: cell-based; conditions: FIG. 3A
MCL-1 [5] = assay: MCL-1 expression in SH-SY5Y cells (immunofluorescence staining); format: cell-based
From the text: The SH-SY5Y cell line is a neuronal cell line with both dopaminergic and adrenergic receptors.

SH-SY5Y cells [6] = assay: Survival of serum-starved SH-SY5Y cells (MTS cell proliferation assay); format: cell-based; conditions: serum starvation
Protocol: as §1

[7] = tested on: primary murine embryonic cortical neurons; assay: Neuroprotection of primary cortical neurons under nutrient deprivation; format: cell-based; conditions: 300 nm agonist; glucose-free Locke's medium; 14 DIV; p<0.05
Protocol: For nutrient deprivation, primary cortical neurons (14 DIV) were incubated in glucose-free Locke's medium with or without […] NP-6AK agonist.
Ex vivo neurons were obtained and treated with an NP-6AK agonist in different conditions to assess neuroprotective properties. Normal primary murine embryonic cortical neurons in culture (14 days in vitro) were challenged with nutrient deprivation by incubation in glucose-free Locke's medium (Schnapf et al. (1990)). These cultures were then supplemented with 300 nM NP-6AK agonist or no NP-6AK agonist.

Zucker Obese (ZO) rats = assay: Zucker Obese rat diabetic/cardiovascular model, 2 weeks subcutaneous treatment; format: in vivo
Protocol: Zucker Obese (ZO) rats (Charles River Laboratories, Inc., Wilmington, Mass.), a diabetic animal model displaying signs of cardiovascular disease were treated for 2 weeks (dose of 0.9 mg/kg/day) via subcutaneous injection with an NP-6AK agonist and assessed for several markers of cardiovascular health including blood markers and structural parameters of the heart. Controls were ZO rats that received saline.

[8] = tested on: human smooth vascular muscle cells; assay: Cell index (CI) cell survival, Xcelligence Real-Time Cell Analyzer, human smooth vascular muscle cells; format: cell-based
Protocol: as §3

[9] = 0.9 mg/kg/day s.c., vs saline ZO rats

AngII: native ligand of AT2R
cell survival relative to cells treated with AT2R antagonist PD123319 (PC-12 cells; MTS assay): more detrimental

Cc1cc(Cn2cnc3c2C[C@@H](C(=O)O)N(C(=O)C(c2ccccc2)c2ccccc2)C3)ccc1N(C)C [PD123319]
effect of AT2R antagonist on NP-6AK-mediated MCL-1 upregulation (MCL-1 [1]): MCL-1 upregulation was not observed
effect of AT2R antagonist on NP-6AK-mediated MCL-1 upregulation (MCL-1 [1]; listed as PD): prevents NP-6AK-mediated up regulation of MCL-1
effect of AT2R antagonist on NP-6AK-mediated MCL-1 upregulation (MCL-1 [2]): MCL-1 upregulation was not observed
effect of AT2R antagonist on NP-6AK-mediated MCL-1 upregulation (MCL-1 [2]; listed as PD): prevents NP-6AK-mediated up regulation of MCL-1
cell survival otherwise observed using the NP-6AK agonist, in presence of the AT2R antagonist ([3]; antagonist added to NP-6AK agonist treatment): not present
protective effects of the NP-6AK agonist when treated with AT2R antagonist (PC-12 cells; PC-12 cells): the protective effects of the NP-6AK agonist were lost

CGP42112A
MCL-1 expression (in words) (MCL-1 [1]): unable to increase MCL-1
MCL-1 expression (in words) (MCL-1 [2]): unable to increase MCL-1
increase in cell index (CI) ([3]; 300 nM): ≥ 14%
cell survival relative to cells treated with AT2R antagonist PD123319 (PC-12 cells; MTS assay): more detrimental

KPLKPW [NP-6AK agonist, AT2R agonist hexapeptide of the NP-6AK class]
neurite elongation (SH-SY5Y cells [4]): promotes neurite elongation
increase in MCL-1 expression (MCL-1 [5]; 300 nM, agonist alone, 24 hours, FIG. 2): 2 fold
MCL-1 expression after treatment with Rapamycin (MCL-1 [5]; agonist added after Rapamycin, FIG. 3B): reverses rapamycin-mediated suppression of MCL-1 expression; also recorded: able to recover MCL-1 expression
higher MCL-1 expression (MCL-1 [1]; 300 nM, cardiomyocytes, FIG. 1): 45%
MCL-1 expression (in words) (MCL-1 [1]): increases MCL-1 expression
higher MCL-1 expression (MCL-1 [2]; 300 nM, human smooth vascular muscle cells, FIG. 1): 22%
MCL-1 expression (in words) (MCL-1 [2]): increases MCL-1 expression
survival rate (SH-SY5Y cells [6]): higher survival rate
increased activity compared with negative controls [7]: 60%
survival and proliferation compared with CGP42112A (300 nM) ([3]; 300 nM, cell index): significantly better survival and more proliferation
increase in cell index (CI) ([3]; 300 nM): ≥ 25%
increased HDL on average (Zucker Obese (ZO) rats; [9]): 12%
reduced triglycerides (fasting plasma) (Zucker Obese (ZO) rats; [9]): ~50%
reduced urine N-acetyl-beta-A-glucosaminidase (Zucker Obese (ZO) rats; [9]): ~60%
reduced urine protein (Zucker Obese (ZO) rats; [9]): ~68%
Echocardiography/Strain analysis E/E (Zucker Obese (ZO) rats; male ZO rat, 0.9 mg/kg/day): 26 ± 2.1
Echocardiography/Strain analysis MPI (Zucker Obese (ZO) rats; male ZO rat, 0.9 mg/kg/day): 0.389 ± 0.02
Plasma Profile HDL (Zucker Obese (ZO) rats; male ZO rat, 0.9 mg/kg/day): 73 ± 2.8 mg/dL
Plasma Profile Triglycerides (Zucker Obese (ZO) rats; male ZO rat, 0.9 mg/kg/day): 610 ± 109 mg/dL
Urine Profile NA6 (Zucker Obese (ZO) rats; male ZO rat, 0.9 mg/kg/day): 10.9 ± 1.5 mg/dL
Urine Profile Protein (Zucker Obese (ZO) rats; male ZO rat, 0.9 mg/kg/day): 445 ± 86.4 mg/dL
Echocardiography/Strain analysis Circumferential Strain (Zucker Obese (ZO) rats; male ZO rat, 0.9 mg/kg/day, endocardium, short axis view): −26.11 ± 2.47
survival and proliferation compared with CGP42112A (300 nM) [8]: significantly better survival and more proliferation
increased survival relative to treatment with 300 nM CGP42112A (PC-12 cells; MTS assay): over 70%
survival rate (PC-12 cells; serum starvation): higher survival rate
